The test system of series [1] is postmenopausal women. Particulars: cited from earlier work.
Series [2] has as its system post-menopausal women. In words: Menopause Rating Scale (MRS), total MRS score. In kind it is in vivo. On the set-up: key: 0 = asymptomatic, 44 = highest degree of complaints. From the text: As used herein, the terms “Quality of Life” (and the abbreviation “QoL”) refers to a parameter which can be assessed, for example, by using questionnaires, such as, by way of example and not limitation, the “Menopause Rating Scale” questionnaire (Heinemann et al., 2003, “International versions of the Menopause Rating Scale (MRS)” Health Qual Life Outcomes 1: 28; Heinemann et al., 2004, “The Menopause Rating Scale (MRS) scale: A methodological review”. Health Qual Life Outcomes 2: 45; Heinemann et al., 2004, “The Menopause Rating Scale (MRS) as outcome measure for hormone treatment? A validation study”. Health Qual Life Outcomes 2:67; as further detailed below in Example 1 Section C.) or the MENQOL questionnaire (The Menopause-specific Quality of Life (MENQOL) questionnaire, Hilditch et al.; Maturitas 1996; A menopause-specific quality of life questionnaire: development and psychometric properties; 24(3); p. 161-175).
The Menopause Rating Scale (MRS) is a health-related quality of life scale allowing the measure of severity of age-/menopause-related complaints by rating a profile of symptoms (Heinemann et al., 2003, “International versions of the Menopause Rating Scale (MRS)” Health Qual Life Outcomes 1: 28; Heinemann et al., 2004, “The Menopause Rating Scale (MRS) scale: A methodological review”. Health Qual Life Outcomes 2: 45; Heinemann et al., 2004, “The Menopause Rating Scale (MRS) as outcome measure for hormone treatment? A validation study”. Health Qual Life Outcomes 2:67).
The score increases point by point with increasing severity of subjectively perceived complaints in each one of 11 items (severity expressed in 0 to 4 points in each item). By checking these 5 possible boxes of “severity” for each of the items in the questionnaire, the respondent provides their personal perception. The total MRS score ranges between 0 (asymptomatic) to 44 (highest degree of complaints). The minimal/maximal scores vary between three dimensions depending on the number of complaints allocated to the respective dimension of symptoms (Heinemann et al., 2003, Health Qual Life Outcomes 1: 28): • 1. psychological symptoms: 0 to 16 scoring points (4 symptoms: depressed, irritable, anxious, exhausted); • 2. somato-vegetative symptoms: 0 to 16 points (4 symptoms: sweating/flush, cardiac complaints, sleeping disorders, joint & muscle complaints); • 3. urogenital symptoms: 0 to 12 points (3 symptoms: sexual problems, urinary complaints, vaginal dryness).

Here are results for one compound from patent publication US11484539B2, “Compounds and their uses for alleviating menopause-associated symptoms” (Estetra SPRL, priority 2018, dated 2022).

Like-named read-outs stand apart in the source and are kept apart here.

As to `C[C@]12CC[C@@H]3c4ccc(O)cc4CC[C@H]3[C@@H]1[C@@H](O)[C@@H](O)[C@@H]2O` [E4, 1,3,5 (10)-estratrien-3,15alpha,16alpha,17beta-tetrol], the Endometrial thickness result is “stable” in series [1] (2 mg estetrol group) and “increasing” in series [1] (10 mg estetrol group). The “Mean number of hot flushes and sweating” value in series [1] (2 mg estetrol per day) is given as “decrease”. Moreover, the “Total MRS Score, Mean” value in series [2] (2.5 mg, Baseline) was 16.5; in series [2] (2.5 mg, Week 12), 9.5; in series [2] (2.5 mg, week 4), 10.3; in series [2] (5 mg, Baseline), 16.5; in series [2] (5 mg, Week 12) it was 11.0; in series [2] (5 mg, week 4), 10.5. Also, the “Total MRS Score, Mean” value in series [2] (10 mg, Baseline) is recorded as 17.6; in series [2] (10 mg, Week 12), 9.7; in series [2] (10 mg, week 4), 11.7; in series [2] (15 mg, Baseline) it was 16.4; in series [2] (15 mg, Week 12), 8.1; in series [2] (15 mg, week 4), 8.7.
